Measured values taken from patent US20230365585A1, “BENZODIAZEPINE DERIVATIVES USEFUL IN TREATING A RESPIRATORY SYNCYTIAL VIRUS INFECTION” (priority 2020, published 2023).

Experiments:
RSV = conditions: Antimicrobial Agents and Chemotherapy, September 2007, 3346-3353; cited from earlier work
RSV A2 = test: RSV plaque reduction assay; type: cell-based, RSV (RSV A2 ECACC, 0709161v); conditions: Hep-G2 cells, RSV A2, 2 days, mean of at least two experiments
How it was run: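 Hep-G2 monolayers infected with 100 PFU/well RSV A2 premixed with eight compound dilutions, 2 h at 37° C, then overlaid with 0.8% CMC/2% FBS DMEM containing compound for 2 days. Plaques immunostained (HRP/TrueBlue) and counted; EC50 from % infection versus virus control, mean of at least two experiments.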

Hep-G2 cells = test: Cell cytotoxicity CC50; type: cell-based; conditions: mean of at least two experiments
Excerpt: (§1) Plates were scanned and analysed using the Immunospot S6 Macro analyser, which is equipped with BioSpot analysis software for counting immunostained plaques (virospots). Plaque counts were used to calculate % infection relative to the mean of the plaque count in the virus control wells for RSV. […] Plaque EC50 and cell toxicity CC50 values are a mean of at least two experiments and figures are rounded to whole units.

[1] = Liver microsomal stability (rat); type: in vitro ADME; conditions: 1 µM compound; for half-life at 1 µM: pooled liver microsomes, pH 7.4, 0.5 mg/mL protein, read-out: Liver Microsomal Stability t½
Experimental: (§2) Compounds were subjected to the following assays to investigate liver microsomal stability.
(§3) Pooled liver microsomes were purchased from a reputable commercial supplier and stored at -80° C. prior to use. Microsomes (final protein concentration 0.5 mg/mL), 0.1 M phosphate buffer pH 7.4 and test compound (final substrate concentration 1 µM; final DMSO concentration 0.25%) were pre-incubated at 37° C. prior to the addition of NADPH (final concentration 1 mM) to initiate the reaction. The final incubation volume was 50 µL. A control incubation was included for each compound tested where 0.1 M phosphate buffer pH 7.4 was added instead of NADPH (minus NADPH). Two control compounds were included with each species. All incubations were performed singularly for each test compound. Each compound was incubated for 0, 5, 15, 30 and 45 min. The control (minus NADPH) was incubated for 45 min only. The reactions were stopped by transferring incubate into acetonitrile at the appropriate time points, in a 1:3 ratio. The termination plates are centrifuged at 3,000 rpm for 20 min at 4° C. to precipitate the protein. Following protein precipitation, the sample supernatants were combined in cassettes of up to 4 compounds, internal standard added, and samples analysed by LC-MS/MS. From a plot of In peak area ratio (compound peak area/internal standard peak area) against time, the gradient of the line was determined. Subsequently, half-life (t½) and intrinsic clearance (CLint) were calculated.

[2] = Liver microsomal stability (dog); type: in vitro ADME; conditions: 1 µM compound; for half-life at 1 µM: pooled liver microsomes, pH 7.4, 0.5 mg/mL protein, read-out: Liver Microsomal Stability t½
Experimental: as §2, §3

[3] = Liver microsomal stability (human); type: in vitro ADME; conditions: 1 µM compound; for half-life at 1 µM: pooled liver microsomes, pH 7.4, 0.5 mg/mL protein, read-out: Liver Microsomal Stability t½
Experimental: as §2, §3

[4] = In vivo pharmacokinetics in rats; set-up: species or system rats [Sprague Dawley (SD)]; conditions: male SD rats
Experimental: The pharmacokinetics of compounds were studied in vivo in rats at doses of 1 mg/kg (IV) and 10 mg/kg (PO).
Male rats [Sprague Dawley (SD)] surgically prepared with a jugular vein cannula were treated with experimental compounds via intravenous administration (IV; n=3; 1 mg/kg) or oral administration (PO; n=3; 10 mg/kg). Compounds were formulated as a solution in 40:60 dimethylacetamide:saline (IV administration) and a solution of 10% DMSO, 10% cremaphor in water (80%) (PO administration). […] Serial blood samples were collected via the cannula at 0.02, 0.08, 0.25, 0.5, 1, 2, 4, 6, 8 and 24 h post IV dosing of compound, and at 0.08, 0.25, 0.5, 1, 2, 4, 6, 8 and 24 h post oral dosing of compound, and plasma was prepared by centrifugation and stored immediately at -80° C. Samples were subsequently thawed, prepared for analysis by protein precipitation with acetonitrile, and analysed by tandem LCMS using electrospray ionisation using a matrix-matched calibration curve. PK parameters were calculated from the resulting data.

Cell cytotoxicity CC50 = type: cell-based; conditions: human; mean of at least two experiments
Excerpt: as §1

[5] = human respiratory syncytial virus, HepG2, 48 h

Compound | EC50 (RSV A2) [nM] | CC50 (Hep-G2 cells) [nM] | EC50 (RSV A2; [5]) [nM] | CC50 (Cell cytotoxicity CC50) [nM] | half-life at 1 µM [1] [h] | half-life at 1 µM [2] [h] | half-life at 1 µM [3] [h] | other results
O=C(Nc1ccccc1F)N[C@H]1N=C(c2ccccc2)c2ccccc2NC1=O [RSV604] | – | – | – | – | – | – | – | anti-RSV activity (RSV): sub-micromolar
N-((S)-9-fluoro-2-oxo-5-phenyl-2,3-dihydro-1H-benzo[b]azepin-3-yl)-2-(2-fluorophenyl)-5,6,7,8-tetrahydro-5,8-methanopyrazolo[5,1-b][1,3]oxazepine-3-carboxamide [Example 19] | 37 | > 25000 | – | – | – | – | – | Liver Microsomal Stability t½ ([1]; rat liver microsomes, 0.5 mg/mL protein): 2.13 h; Liver Microsomal Stability t½ ([2]; dog liver microsomes, 0.5 mg/mL protein): 1.92 h; Liver Microsomal Stability t½ ([3]; human liver microsomes, 0.5 mg/mL protein): 1.23 h; C 8 h ([4]; 8 h, route not stated in the row): 110 ng/mL; IV t½ ([4]; IV 1 mg/kg): 2.30 h; PO AUClast ([4]; PO 10 mg/kg): 4487 ng·h/mL; PO t½ ([4]; PO 10 mg/kg): 2.9 h; F ([4]; PO 10 mg/kg vs IV 1 mg/kg): 39.3%; Cmax ([4]; route not stated in the row, study IV 1 mg/kg, PO 10 mg/kg): 949 ng/mL; Cl ([4]; study IV 1 mg/kg, PO 10 mg/kg): 16.1 mL/min/kg; Vd ([4]; study IV 1 mg/kg, PO 10 mg/kg): 2.8 L/kg
CC1CCCn2nc(-c3ccc(F)cc3F)c(C(=O)N[C@H]3N=C(c4ccccc4)c4ccccc4NC3=O)c2O1 (single isomer, unassigned) [Example 16-2, (5S*)-2-(2,4-difluorophenyl)-5-methyl-N-[(3S)-2-oxo-5-phenyl-1,3-dihydro-1,4-benzodiazepin-3-yl]-5,6,7,8-tetrahydropyrazolo[5,1-b][1,3]oxazepine-3-carboxamide] | 39 | > 25000 | – | – | – | – | – | –
O=C(N[C@H]1N=C(c2ccccc2)c2cccc(F)c2NC1=O)c1c(-c2ccccc2F)nn2c1OCC(F)(F)CC2 [Example 28, 6,6-Difluoro-N-[(3S)-9-fluoro-2-oxo-5-phenyl-2,3-dihydro-1H-1,4-benzodiazepin-3-yl]-2-(2-fluorophenyl)-5H,6H,7H,8H-pyrazolo[3,2-b][1,3]oxazepine-3-carboxamide] | – | – | 45 | > 25000 | 3.25 | 31 | 11.2 | –
CC(C)Nc1ccc(-c2nn3c(c2C(=O)N[C@H]2N=C(c4ccccc4)c4ccccc4NC2=O)OC(C)CCC3)c(F)n1 (single isomer, unassigned) [Example 12-2, (5S*)-2-[2-fluoro-6-(propan-2-ylamino)pyridin-3-yl]-5-methyl-N-[(3S)-2-oxo-5-phenyl-1,3-dihydro-1,4-benzodiazepin-3-yl]-5,6,7,8-tetrahydropyrazolo[5,1-b][1,3]oxazepine-3-carboxamide] | 33 | > 25000 | – | – | – | – | – | –
O=C(N[C@H]1N=C(c2ccccc2)c2cccc(F)c2NC1=O)c1c(-c2ccccc2F)nn2c1OCCCC2 [Example 2, N-[(3S)-9-Fluoro-2-oxo-5-phenyl-1,3-dihydro-1,4-benzodiazepin-3-yl]-2-(2-fluorophenyl)-5,6,7,8-tetrahydropyrazolo[5,1-b][1,3]oxazepine-3-carboxamide] | – | – | 33 | > 25000 | 0.853 | 5.42 | 6.05 | –
